Assay results reported in patent publication US4021545A, “Complement inhibitors” (priority 1976, dated 1977).
Where “and” joins values, the source holds several entries; their conditions need not be identical. Identical values can stand only once.

How the values were obtained:
[1] = tested on: activated human C1; assay: Test, Code 026 (C1 inhibitor); type: biochemical; conditions: serial two-fold dilution assay; higher well number indicates higher activity
Description: (§1) This test measures the ability of activated human C1 to destroy fluid phase human C2 in the presence of C4 and appropriate dilutions of the test compound. […] Inhibition of the shunt pathway results in failure of lysis; (iv) Forssman Test -- Here, the well known complement dependent lesion, Forssman vasculitis, is produced in guinea pigs by intradermal injection of rabbit anti-Forssman antiserum. […] The complement level is determined in undiluted serum by the capillary tube method of U.S. Pat. No. 3,876,376 and compared to undosed control guinea pigs; and (vii) Cap 50 Test -- Here, appropriate amounts of the test compound are added to a pool of guinea pig serum in vitro, after which the undiluted serum capillary tube assay referred to above is run.

[2] = tested on: late components of human complement (C3-C9); assay: Test, Code 035 (C3-C9 inhibitor); type: biochemical; conditions: serial two-fold dilution assay; higher well number indicates higher activity; lysis of EAC 142
Description: as §1

[3] = tested on: shunt pathway activated by cobra venom factor; type: cell-based; conditions: serial two-fold dilution assay; higher well number indicates higher activity; human erythrocytes in autologous serum
Description: as §1

[4] = tested on: complement in pool of guinea pig serum; assay: Cap 50 Test; type: biochemical; conditions: in vitro, undiluted guinea pig serum, capillary tube assay
Description: as §1

[5] = tested on: whole complement; conditions: 200 mg/kg, percent inhibition of serum complement vs simultaneous controls
Description: With reference to Table I, guinea pigs weighing about 300 g were dosed intravenously (IV) or intraperitoneally (IP) with 200 mg/kg of the test compound dissolved in saline and adjusted to pH 7-8. One hour after dosing, the guinea pigs were decapitated, blood was collected and the serum separated. The serum was tested for whole complement using the capillary tube assay. Percent inhibition was calculated by comparison with simultaneous controls.

Substance	Cl 026 [1]	C-Late 035 [2]	Shunt Inhibit. 036 [3] [wells]	Cap 50 [4]	In Vivo Activity Guinea Pig (IV) 2 Hr. ([5]; 2 Hr.)	In Vivo Activity Guinea Pig (IV) 30 Hr. ([5]; 30 Hr.)	In Vivo Activity Guinea Pig (IV) 120 Hr. ([5]; 120 Hr.)
Inulin, poly(H-sulfate)salt with trimethylamine	8 wells	6 wells	5	131			
Inulin, poly(H-sulfate)sodium salt [INULIN, POLY(H-SULFATE) SODIUM SALT]	7 wells and 10 wells	5 wells and 7 wells	5	100 and 94 and 92			
Inulin, poly(H-sulfate)salt with triethylamine	8 wells	5 wells	5	160	-97	-95	-91
